Laboratory results reported in PMC3947346 (Psychopharmacology, 2013).

Experiments:
male C57BL/6 J mice [1] = experiment: repeated drinking-in-the-dark
male C57BL/6 J mice [2] = experiment: intermittent access to ethanol
male C57BL/6 J mice [3] = experiment: blood ethanol concentrations; type: in vivo; conditions: 17 mg/kg p.o.
[4] = in vivo pharmacokinetic study, plasma; set-up: species or system mice; conditions: 10 mg/kg p.o.

With `O=C1CC[C@@]2(O)[C@H]3Cc4ccc(O)c5c4[C@@]2(CCN3CC2CC2)[C@H]1O5` [Naltrexone, reference compound] the “DID ethanol intake (gram per kilogram), effect vs vehicle” value (male C57BL/6 J mice [1]; 0.1, 1, 10 mg/kg i.p., any subsequent hour (2-4 h)) was “no effect”, the “DID ethanol intake (gram per kilogram), effect vs vehicle” value (male C57BL/6 J mice [1]; 0.1, 1, 10 mg/kg i.p., first hour, all doses) was “significantly reduced ethanol drinking” and the “Mean percent decrease of ethanol intake (ml)” value (male C57BL/6 J mice [1]; DID, 10 mg/kg i.p., initial hour) was “approximately 57%”. For the same compound, the “IA ethanol drinking (gram per kilogram), effect vs saline vehicle” value (male C57BL/6 J mice [2]; 10 mg/kg i.p., 2-h access) was “decreased ethanol drinking” and the “Mean percent decrease of ethanol intake (ml)” value (male C57BL/6 J mice [2]; IA, 10 mg/kg i.p., 2 h) was “approximately 36%”.
With `COc1nn(-c2ccc(F)c(NC(C)=O)c2)c(=O)n(Cc2ccc(Cl)c(F)c2)c1=O` [ADX71441] the “motor activity, observation” value (male C57BL/6 J mice [1]; 30 mg/kg p.o.) was “signs of mild reduction in motor activity in a few animals”, the “DID ethanol intake (gram per kilogram), effect vs vehicle” value (male C57BL/6 J mice [1]; 3, 10, 30 mg/kg p.o., hours 1-4, post hoc only 10 and 30 mg/kg) was “significantly and dose-dependently reduced” and the “Percent change from baseline, volume of ethanol (ml)” value (“Percent change from baseline … (ml)” for short) (male C57BL/6 J mice [1]; DID, 3 mg/kg p.o., 1 h) was −25.93±11.92%. For the same compound, the “Percent change from baseline … (ml)” value (male C57BL/6 J mice [1]; DID, 3 mg/kg p.o., 2 h) was −23.12±7.29%, the “Percent change from baseline … (ml)” value (male C57BL/6 J mice [1]; DID, 3 mg/kg p.o., 3 h) was −9.84±6.84% and the “Percent change from baseline … (ml)” value (male C57BL/6 J mice [1]; DID, 3 mg/kg p.o., 4 h) was −4.83±8.82%. The “Percent change from baseline … (ml)” value (male C57BL/6 J mice [1]; DID, 10 mg/kg p.o., 1 h) was −70.44±13.55 %, the “Percent change from baseline … (ml)” value (male C57BL/6 J mice [1]; DID, 10 mg/kg p.o., 2 h) was −57.53±8.28 % and the “Percent change from baseline … (ml)” value (male C57BL/6 J mice [1]; DID, 10 mg/kg p.o., 3 h) was −36.11±5.39 %. For the same compound, the “Percent change from baseline … (ml)” value (male C57BL/6 J mice [1]; DID, 10 mg/kg p.o., 4 h) was −25.11±7.68 %, the “Percent change from baseline … (ml)” value (male C57BL/6 J mice [1]; DID, 30 mg/kg p.o., 1 h) was −80.73±4.11 % and the “Percent change from baseline … (ml)” value (male C57BL/6 J mice [1]; DID, 30 mg/kg p.o., 2 h) was −86.04±4.05 %. For the same compound, the “Percent change from baseline … (ml)” value (male C57BL/6 J mice [1]; DID, 30 mg/kg p.o., 3 h) was −80.99±4.39 %, the “Percent change from baseline … (ml)” value (male C57BL/6 J mice [1]; DID, 30 mg/kg p.o., 4 h) was −69.57±3.89 % and the “Mean percent change from vehicle baseline, ethanol intake” value (male C57BL/6 J mice [1]; DID, highest dose (30 mg/kg p.o.), across the 4-h test) was −70–80%. For the same compound, the “BEC after 4 h IA, difference vs vehicle treatment” value (male C57BL/6 J mice [3]) was “not statistically different”, the “Average BEC (blood ethanol concentration)” value (male C57BL/6 J mice [3]; after 4 h IA access, vehicle 47.73±9.18 mg/dl) was 35.74 ± 5.34 mg/dL and the “mean plasma concentration at 4 h as % of the mean Cmax” value ([4]; 4 h) was 72%. For the same compound, the “mean plasma concentration at 24 h as % of the mean Cmax” value ([4]; 24 h) was 5%, the “AUC0–8” value ([4]; male C57BL/6 mice) was 6,970 ng h/ml and the “C max ± SD” value ([4]; male C57BL/6 mice) was 673 ± 50 ng/mL. For the same compound, the “Plasma concentration at 0.25 h” value ([4]; male C57BL/6 mice) was 538 ± 51 ng/mL, the “Plasma concentration ± SD at 1 h” value ([4]; male C57BL/6 mice) was 629 ± 61 ng/mL and the “Plasma concentration ± SD at 4 h” value ([4]; male C57BL/6 mice) was 487 ± 62 ng/mL. The “Plasma concentration ± SD at 24 h” value ([4]; male C57BL/6 mice) was 36.4 ± 33 ng/mL, the “T 1/2 (terminal half-life)” value ([4]; male C57BL/6 mice) was 5.3 h and the T max ([4]; male C57BL/6 mice) was 2 h. For the same compound, the “AUClast ± SD” value ([4]; male C57BL/6 mice, Tlast=24 h) was 6,700±309 ng h/ml, the “Ethanol preference, effect” value (male C57BL/6 J mice [2]; IA, 3, 10, 17 mg/kg p.o., any time point) was “not significantly affected” and the “Percent change from baseline, volume of ethanol” value (male C57BL/6 J mice [2]; IA, 3 mg/kg p.o., 2 h) was −3.92±12.96%. For the same compound, the “Percent change from baseline, volume of ethanol” value (male C57BL/6 J mice [2]; IA, 3 mg/kg p.o., 4 h) was −8.21±7.51%, the “Percent change from baseline, volume of ethanol” value (male C57BL/6 J mice [2]; IA, 3 mg/kg p.o., 24 h) was 0.31±6.16% and the “Percent change from baseline, volume of ethanol” value (male C57BL/6 J mice [2]; IA, 10 mg/kg p.o., 2 h) was −37.54±18.17%. For the same compound, the “Percent change from baseline, volume of ethanol” value (male C57BL/6 J mice [2]; IA, 10 mg/kg p.o., 4 h) was −29.60±10.55 %, the “Percent change from baseline, volume of ethanol” value (male C57BL/6 J mice [2]; IA, 10 mg/kg p.o., 24 h) was −10.12±5.36% and the “Percent change from baseline, volume of ethanol” value (male C57BL/6 J mice [2]; IA, 17 mg/kg p.o., 2 h) was −66.39±10.30 %. The “Percent change from baseline, volume of ethanol” value (male C57BL/6 J mice [2]; IA, 17 mg/kg p.o., 4 h) was −44.07±9.06 %, the “Percent change from baseline, volume of ethanol” value (male C57BL/6 J mice [2]; IA, 17 mg/kg p.o., 24 h) was −15.30±4.81 % and the “Percent change from baseline, volume of water” value (“Percent change … of water” below) (male C57BL/6 J mice [2]; IA, 3 mg/kg p.o., 2 h) was 46.78±40.53%. The “Percent change … of water” value (male C57BL/6 J mice [2]; IA, 3 mg/kg p.o., 4 h) was 17.35±22.27%, the “Percent change … of water” value (male C57BL/6 J mice [2]; IA, 3 mg/kg p.o., 24 h) was −7.73±19.28% and the “Percent change … of water” value (male C57BL/6 J mice [2]; IA, 10 mg/kg p.o., 2 h) was 55.56±45.39%. The “Percent change … of water” value (male C57BL/6 J mice [2]; IA, 10 mg/kg p.o., 4 h) was 19.72±20.18%, the “Percent change … of water” value (male C57BL/6 J mice [2]; IA, 10 mg/kg p.o., 24 h) was 9.05±18.21% and the “Percent change … of water” value (male C57BL/6 J mice [2]; IA, 17 mg/kg p.o., 2 h) was −26.90±22.63%. For the same compound, the “Percent change … of water” value (male C57BL/6 J mice [2]; IA, 17 mg/kg p.o., 4 h) was −9.62±13.96%, the “Percent change … of water” value (male C57BL/6 J mice [2]; IA, 17 mg/kg p.o., 24 h) was 10.83±11.73% and the “IA ethanol drinking (gram per kilogram), effect vs vehicle” value (male C57BL/6 J mice [2]; p.o., 4-h access period, 10 and 17 mg/kg most effective, not at 2 h) was “reduced ethanol drinking”.
